We go through 2 compounds from ChEMBL document CHEMBL5212743, “Selectivity Literature for EUbOPEN Chemogenomics Library wave 3” (2023).

The IC50 is the midpoint of a concentration-inhibition curve. As usually defined, the Ki is a measure of affinity in units of concentration, obtained from inhibition or displacement.

Some results are limits rather than exact numbers.

The target of test [1] is Non-receptor tyrosine-protein kinase TYK2 (Homo sapiens, UniProt P29597). Nature of the test: Selectivity interaction (KinomeScan (DiscoverX)) EUB0000728a TYK2. As to conditions: at 1 µM.
Chain of Non-receptor tyrosine-protein kinase TYK2 (P29597 whole entry): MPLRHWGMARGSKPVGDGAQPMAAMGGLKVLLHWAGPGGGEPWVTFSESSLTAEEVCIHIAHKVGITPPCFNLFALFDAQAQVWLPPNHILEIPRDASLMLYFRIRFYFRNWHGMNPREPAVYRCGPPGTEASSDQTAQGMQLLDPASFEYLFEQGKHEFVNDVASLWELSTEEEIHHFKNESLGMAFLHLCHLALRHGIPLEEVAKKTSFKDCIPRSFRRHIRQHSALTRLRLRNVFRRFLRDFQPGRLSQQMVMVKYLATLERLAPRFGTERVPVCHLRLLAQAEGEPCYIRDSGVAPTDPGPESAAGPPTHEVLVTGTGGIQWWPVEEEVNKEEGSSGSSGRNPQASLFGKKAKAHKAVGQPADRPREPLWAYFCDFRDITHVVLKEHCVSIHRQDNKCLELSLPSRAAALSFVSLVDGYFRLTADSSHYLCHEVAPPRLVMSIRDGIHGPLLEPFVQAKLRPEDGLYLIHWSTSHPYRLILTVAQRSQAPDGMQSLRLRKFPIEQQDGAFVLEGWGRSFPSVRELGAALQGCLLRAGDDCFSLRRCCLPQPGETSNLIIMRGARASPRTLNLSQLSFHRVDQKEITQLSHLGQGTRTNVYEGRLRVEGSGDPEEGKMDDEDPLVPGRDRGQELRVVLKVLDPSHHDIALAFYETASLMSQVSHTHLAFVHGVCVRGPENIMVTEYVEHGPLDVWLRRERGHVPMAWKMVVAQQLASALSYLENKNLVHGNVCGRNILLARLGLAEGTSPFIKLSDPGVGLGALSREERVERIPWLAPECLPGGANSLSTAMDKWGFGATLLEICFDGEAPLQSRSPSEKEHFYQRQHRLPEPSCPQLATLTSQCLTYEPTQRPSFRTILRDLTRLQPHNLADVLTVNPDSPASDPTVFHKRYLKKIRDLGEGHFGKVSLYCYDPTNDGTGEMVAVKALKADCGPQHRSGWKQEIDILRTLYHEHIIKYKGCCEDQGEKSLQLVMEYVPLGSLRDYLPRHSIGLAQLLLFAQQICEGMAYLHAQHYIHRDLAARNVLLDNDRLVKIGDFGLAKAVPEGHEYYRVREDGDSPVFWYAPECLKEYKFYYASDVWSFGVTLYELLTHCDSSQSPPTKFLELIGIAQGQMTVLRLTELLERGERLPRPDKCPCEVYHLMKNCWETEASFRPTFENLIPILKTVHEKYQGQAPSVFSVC
The target in test [2] is Calcium/calmodulin-dependent protein kinase type 1B (Homo sapiens, UniProt Q6P2M8). Nature of the test: Selectivity interaction (KinomeScan (DiscoverX)) EUB0000728a PNCK. Particulars: at 1 µM.
Chain of Calcium/calmodulin-dependent protein kinase type 1B (Q6P2M8 whole entry): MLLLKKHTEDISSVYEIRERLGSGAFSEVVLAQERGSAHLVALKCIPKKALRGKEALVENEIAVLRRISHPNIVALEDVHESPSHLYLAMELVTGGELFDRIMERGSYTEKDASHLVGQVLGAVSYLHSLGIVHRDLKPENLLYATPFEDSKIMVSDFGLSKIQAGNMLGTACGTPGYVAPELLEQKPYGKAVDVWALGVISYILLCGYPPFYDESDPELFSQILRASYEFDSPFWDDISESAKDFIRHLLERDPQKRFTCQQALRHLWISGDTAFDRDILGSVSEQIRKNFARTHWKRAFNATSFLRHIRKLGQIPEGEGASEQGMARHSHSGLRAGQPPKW
Test [3] addresses 72 kDa type IV collagenase (Homo sapiens, UniProt P08253). Briefly: Selectivity interaction (Lead profiling screen (Eurofins, enzymes, transporters, GPCRs, ion chanels)) EUB0000728a MMP2.
Test [4] has as its target Matrix metalloproteinase-9 (Homo sapiens, UniProt P14780). Nature of the test: Selectivity interaction (Lead profiling screen (Eurofins, enzymes, transporters, GPCRs, ion chanels)) EUB0000728a MMP9.
The target of test [5] is T1, Matrilysin (Homo sapiens, UniProt P09237).
T1 sequence (P09237 whole entry): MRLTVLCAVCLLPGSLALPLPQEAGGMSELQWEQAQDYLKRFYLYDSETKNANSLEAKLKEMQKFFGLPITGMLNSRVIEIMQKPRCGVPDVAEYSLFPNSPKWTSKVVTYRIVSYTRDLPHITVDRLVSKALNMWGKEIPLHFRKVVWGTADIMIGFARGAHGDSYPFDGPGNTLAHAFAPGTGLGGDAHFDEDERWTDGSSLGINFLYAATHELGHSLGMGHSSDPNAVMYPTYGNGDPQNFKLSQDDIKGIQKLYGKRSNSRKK
Nature of the test: Selectivity interaction (Lead profiling screen (Eurofins, enzymes, transporters, GPCRs, ion chanels)) EUB0000728a MMP7.

For test [6], the target named is Matrix metalloproteinase-14 (Homo sapiens, UniProt P50281). Briefly: Selectivity interaction (Lead profiling screen (Eurofins, enzymes, transporters, GPCRs, ion chanels)) EUB0000728a MMP14.
The target of test [7] is D(2) dopamine receptor (Homo sapiens, UniProt P14416). Nature of the test: Selectivity interaction (GPCR panel (PDSP screen)) EUB0000728a DRD2. Particulars: at 10 µM.
Chain of D(2) dopamine receptor (P14416 whole entry): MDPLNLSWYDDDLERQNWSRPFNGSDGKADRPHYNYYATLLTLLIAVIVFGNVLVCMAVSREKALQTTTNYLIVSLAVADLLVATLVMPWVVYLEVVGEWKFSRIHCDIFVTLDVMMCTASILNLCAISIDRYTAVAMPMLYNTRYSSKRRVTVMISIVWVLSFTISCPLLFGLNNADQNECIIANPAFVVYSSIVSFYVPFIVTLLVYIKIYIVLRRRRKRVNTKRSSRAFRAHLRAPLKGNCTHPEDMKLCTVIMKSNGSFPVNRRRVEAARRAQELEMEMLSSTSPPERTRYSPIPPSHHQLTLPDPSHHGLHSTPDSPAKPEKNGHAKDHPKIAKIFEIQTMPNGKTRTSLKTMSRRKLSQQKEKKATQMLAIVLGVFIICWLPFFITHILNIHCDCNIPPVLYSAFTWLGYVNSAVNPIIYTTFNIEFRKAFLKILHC
Test [8] deals with Neutrophil collagenase (Homo sapiens, UniProt P22894). Nature of the test: Selectivity interaction (Lead profiling screen (Eurofins, enzymes, transporters, GPCRs, ion chanels)) EUB0000728a MMP8.
Chain of Neutrophil collagenase (P22894 whole entry): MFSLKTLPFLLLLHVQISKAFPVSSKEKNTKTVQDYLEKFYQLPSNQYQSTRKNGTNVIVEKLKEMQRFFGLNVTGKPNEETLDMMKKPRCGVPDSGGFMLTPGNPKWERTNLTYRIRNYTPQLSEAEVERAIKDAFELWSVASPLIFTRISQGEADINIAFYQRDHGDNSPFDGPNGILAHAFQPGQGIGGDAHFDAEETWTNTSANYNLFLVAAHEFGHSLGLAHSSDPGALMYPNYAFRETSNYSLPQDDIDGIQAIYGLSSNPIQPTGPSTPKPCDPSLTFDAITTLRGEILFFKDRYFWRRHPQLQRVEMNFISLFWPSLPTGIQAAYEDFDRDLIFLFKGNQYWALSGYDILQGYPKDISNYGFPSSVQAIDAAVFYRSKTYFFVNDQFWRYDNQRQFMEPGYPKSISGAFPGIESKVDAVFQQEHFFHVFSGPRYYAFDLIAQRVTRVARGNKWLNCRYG
Test [9] has as its target Stromelysin-1 (Homo sapiens, UniProt P08254). Nature of the test: Selectivity interaction (Lead profiling screen (Eurofins, enzymes, transporters, GPCRs, ion chanels)) EUB0000728a MMP3.
Test [10] concerns the target Epidermal growth factor receptor (Homo sapiens, UniProt P00533). Briefly: Selectivity interaction (KinomeScan (DiscoverX)) EUB0000728a EGFR. Particulars: at 1 µM.
For test [11], the target named is Matrix metalloproteinase-16 (Homo sapiens, UniProt P51512). Briefly: Selectivity interaction (Lead profiling screen (Eurofins, enzymes, transporters, GPCRs, ion chanels)) EUB0000728a MMP16.
Chain of Matrix metalloproteinase-16 (P51512 whole entry): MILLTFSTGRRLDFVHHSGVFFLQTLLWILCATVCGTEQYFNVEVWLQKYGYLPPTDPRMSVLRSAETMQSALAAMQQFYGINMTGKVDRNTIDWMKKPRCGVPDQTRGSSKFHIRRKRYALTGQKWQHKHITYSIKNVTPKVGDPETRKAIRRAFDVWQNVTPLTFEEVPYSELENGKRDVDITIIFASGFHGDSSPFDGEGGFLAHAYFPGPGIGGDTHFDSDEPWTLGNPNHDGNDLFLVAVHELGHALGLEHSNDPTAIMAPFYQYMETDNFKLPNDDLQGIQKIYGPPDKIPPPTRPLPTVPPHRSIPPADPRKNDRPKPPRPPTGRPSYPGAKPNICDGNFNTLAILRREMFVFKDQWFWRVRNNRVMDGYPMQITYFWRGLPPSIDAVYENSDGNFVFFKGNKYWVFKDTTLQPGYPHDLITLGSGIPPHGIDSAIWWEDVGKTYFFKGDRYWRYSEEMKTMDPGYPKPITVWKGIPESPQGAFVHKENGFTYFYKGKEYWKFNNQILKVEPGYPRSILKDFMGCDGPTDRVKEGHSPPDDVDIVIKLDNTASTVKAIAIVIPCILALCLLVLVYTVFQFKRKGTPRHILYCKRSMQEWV
In test [12] the target is Collagenase 3 (Homo sapiens, UniProt P45452). Briefly: Selectivity interaction (Lead profiling screen (Eurofins, enzymes, transporters, GPCRs, ion chanels)) EUB0000728a MMP13.
The target in test [13] is Stromelysin-2 (Homo sapiens, UniProt P09238). Briefly: Selectivity interaction (Lead profiling screen (Eurofins, enzymes, transporters, GPCRs, ion chanels)) EUB0000728a MMP10.
Test [14] concerns the target Mitotic checkpoint serine/threonine-protein kinase BUB1 (Homo sapiens) (UniProt O43683). Nature of the test: Selectivity interaction (KinomeScan (DiscoverX)) EUB0000335a BUB1. As to conditions: at 1 µM.
Test [15] concerns the target Receptor-interacting serine/threonine-protein kinase 1 (Homo sapiens) (UniProt Q13546). Briefly: Selectivity interaction (KinomeScan (DiscoverX)) EUB0000335a RIPK1. As to conditions: at 1 µM.
The target of test [16] is D(1A) dopamine receptor (Homo sapiens, UniProt P21728). Nature of the test: Selectivity interaction (GPCR panel (PDSP screen)) EUB0000335a DRD1.
Test [17] concerns the target Cyclin-dependent kinase 3 (Homo sapiens) (UniProt Q00526). Briefly: Selectivity interaction (KinomeScan (DiscoverX)) EUB0000335a CDK3. As to conditions: at 1 µM.
Test [18] concerns the target Serine/threonine-protein kinase WNK2 (Homo sapiens) (UniProt Q9Y3S1). Nature of the test: Selectivity interaction (KinomeScan (DiscoverX)) EUB0000335a WNK2. Particulars: at 1 µM.
In test [19] the target is T2, Mitogen-activated protein kinase kinase kinase 13 (Homo sapiens) (UniProt O43283).
T2 sequence (whole entry): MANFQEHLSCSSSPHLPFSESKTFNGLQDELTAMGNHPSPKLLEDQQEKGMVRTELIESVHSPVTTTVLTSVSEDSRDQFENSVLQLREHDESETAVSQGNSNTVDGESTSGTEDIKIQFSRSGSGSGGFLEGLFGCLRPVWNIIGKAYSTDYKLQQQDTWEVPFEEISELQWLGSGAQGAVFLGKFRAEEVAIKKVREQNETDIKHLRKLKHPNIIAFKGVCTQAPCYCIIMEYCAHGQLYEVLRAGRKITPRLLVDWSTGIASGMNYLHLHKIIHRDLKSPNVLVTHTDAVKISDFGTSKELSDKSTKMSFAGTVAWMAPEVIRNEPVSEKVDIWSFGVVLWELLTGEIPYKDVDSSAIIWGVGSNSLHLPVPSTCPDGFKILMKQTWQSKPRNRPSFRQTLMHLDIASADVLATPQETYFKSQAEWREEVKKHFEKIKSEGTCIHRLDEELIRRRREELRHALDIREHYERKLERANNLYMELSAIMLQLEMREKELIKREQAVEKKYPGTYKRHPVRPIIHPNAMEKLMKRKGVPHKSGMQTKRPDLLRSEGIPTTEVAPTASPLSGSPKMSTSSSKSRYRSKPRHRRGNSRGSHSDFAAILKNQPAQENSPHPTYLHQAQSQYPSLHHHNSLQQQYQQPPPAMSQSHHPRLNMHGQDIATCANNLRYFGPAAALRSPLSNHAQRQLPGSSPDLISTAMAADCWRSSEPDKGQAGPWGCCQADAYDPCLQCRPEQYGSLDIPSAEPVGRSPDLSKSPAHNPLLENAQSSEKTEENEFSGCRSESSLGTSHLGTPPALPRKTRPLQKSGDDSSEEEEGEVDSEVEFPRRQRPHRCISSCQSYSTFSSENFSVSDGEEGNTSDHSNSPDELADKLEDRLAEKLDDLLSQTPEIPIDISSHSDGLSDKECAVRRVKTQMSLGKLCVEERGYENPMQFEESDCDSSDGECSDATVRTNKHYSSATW
Nature of the test: Selectivity interaction (KinomeScan (DiscoverX)) EUB0000335a MAP3K13. Particulars: at 1 µM.

Chain of Matrix metalloproteinase-9 (P14780 whole entry): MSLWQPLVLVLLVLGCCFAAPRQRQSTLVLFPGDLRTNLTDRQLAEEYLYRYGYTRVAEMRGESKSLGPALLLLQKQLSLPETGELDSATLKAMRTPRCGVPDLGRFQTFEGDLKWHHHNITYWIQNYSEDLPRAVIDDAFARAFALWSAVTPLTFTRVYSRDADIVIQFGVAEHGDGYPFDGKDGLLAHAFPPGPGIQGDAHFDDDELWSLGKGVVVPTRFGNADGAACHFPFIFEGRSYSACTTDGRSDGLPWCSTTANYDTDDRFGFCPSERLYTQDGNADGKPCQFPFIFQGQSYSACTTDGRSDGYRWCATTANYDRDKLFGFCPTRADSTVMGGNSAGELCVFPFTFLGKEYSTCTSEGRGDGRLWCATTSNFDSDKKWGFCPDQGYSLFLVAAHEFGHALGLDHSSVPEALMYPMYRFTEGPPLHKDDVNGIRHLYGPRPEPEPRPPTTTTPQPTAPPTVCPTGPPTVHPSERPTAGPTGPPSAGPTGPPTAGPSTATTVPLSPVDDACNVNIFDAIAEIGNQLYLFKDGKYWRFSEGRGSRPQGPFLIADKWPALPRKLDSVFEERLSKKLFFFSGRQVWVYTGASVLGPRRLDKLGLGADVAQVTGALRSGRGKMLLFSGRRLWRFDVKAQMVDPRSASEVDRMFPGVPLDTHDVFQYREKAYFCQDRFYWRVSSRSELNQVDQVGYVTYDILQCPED
Chain of 72 kDa type IV collagenase (P08253 whole entry): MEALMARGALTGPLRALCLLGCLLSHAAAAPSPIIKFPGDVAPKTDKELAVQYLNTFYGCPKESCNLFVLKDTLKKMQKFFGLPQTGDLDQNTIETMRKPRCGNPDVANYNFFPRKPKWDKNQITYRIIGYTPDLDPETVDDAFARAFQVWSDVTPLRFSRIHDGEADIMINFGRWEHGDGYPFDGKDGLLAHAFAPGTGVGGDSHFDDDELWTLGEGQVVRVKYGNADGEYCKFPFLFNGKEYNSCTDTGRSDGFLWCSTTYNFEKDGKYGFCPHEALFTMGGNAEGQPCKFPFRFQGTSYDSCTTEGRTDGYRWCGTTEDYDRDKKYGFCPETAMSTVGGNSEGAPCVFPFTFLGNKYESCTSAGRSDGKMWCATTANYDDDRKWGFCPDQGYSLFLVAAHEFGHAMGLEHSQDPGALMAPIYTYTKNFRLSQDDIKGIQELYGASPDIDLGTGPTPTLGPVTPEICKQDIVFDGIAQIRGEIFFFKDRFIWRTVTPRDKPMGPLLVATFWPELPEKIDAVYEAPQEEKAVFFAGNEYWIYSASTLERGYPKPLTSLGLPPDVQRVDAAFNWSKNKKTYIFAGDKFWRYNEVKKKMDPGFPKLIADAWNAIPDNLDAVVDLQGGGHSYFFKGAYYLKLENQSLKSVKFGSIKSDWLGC
Chain of Cyclin-dependent kinase 3 (Homo sapiens) (Q00526 whole entry, looked up): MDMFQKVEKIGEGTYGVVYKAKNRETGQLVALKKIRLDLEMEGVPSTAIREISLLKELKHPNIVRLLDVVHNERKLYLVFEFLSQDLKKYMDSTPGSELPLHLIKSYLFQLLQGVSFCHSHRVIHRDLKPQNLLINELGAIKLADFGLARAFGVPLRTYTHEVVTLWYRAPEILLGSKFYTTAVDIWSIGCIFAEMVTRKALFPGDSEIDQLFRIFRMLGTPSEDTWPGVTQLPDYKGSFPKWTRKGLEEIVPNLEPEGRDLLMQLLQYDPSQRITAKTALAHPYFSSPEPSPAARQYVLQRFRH

With `O=C(O)[C@H]1[C@H](Cn2nnc3ccccc3c2=O)CC[C@@H]1C(=O)c1ccc(OCCC2CCOCC2)cc1` [BAY-7598], the % of control amounted to 41% in test [1], 46% in [2] and 40% in [10]. For the same compound, the IC50 turned out to be 0.044 µM in test [3]; 0.46 µM in test [4]; 0.6 µM in [5]; 0.25 µM in test [6]; 0.015 µM in test [8]; 0.36 µM in test [9]. Moreover, the IC50 in [11] came to 0.94 µM; in test [12], 0.067 µM; in test [13], 0.013 µM. In addition, the % of inhibition in test [7] came out at 30%.

For the compound `O=C(NCc1ncc(C(F)(F)F)cc1Cl)c1ccc2c(c1)C1(CCS(=O)(=O)CC1)[C@@H](C1CC1)N2S(=O)(=O)c1ccc(F)cc1` [BAY-786], the % of control in [14] was found to be 1.9%; in [15], 30%; in test [17], 41%; in test [18] it was 0%; in test [19] it was 0%. In test [16], the Ki is over 10 µM.
